Assay results from patent US11998602B2, “Methods for promoting myelination and for treating demyelinating diseases” (The Scripps Research Institute, priority 2018, dated 2024).

Legend:
OPCs = test: Mitochondrial respiration assay (oxygen consumption rate, XFe96 Seahorse); format: cell-based, rat; conditions: 2 mM taurine, day 6, basal and benztropine- or miconazole-induced differentiation conditions
Procedure: Mitochondrial respiration assay. Cellular oxygen consumption rate (OCR) was measured using an XFe96 extracellular flux analyzer (Seahorse Biosciences). OPCs were seeded at 40,000 cells/well in PLP-coated XFe96 plates and cultured for 6 days with taurine (2 and 20 mM) alone, or together with miconazole and benztropine. Cells were then incubated in assay medium (DMEM with 20 mM glucose, 5 mM pyruvate and 5 mM sodium bicarbonate, pH˜7.4) for at least 30 min prior to the assay. Media to deliver a final assay well concentration corresponding to of 1 μM oligomycin, 2 μM carbonyl cyanide 4-(trifluoromethoxy) phenylhydrazone (FCCP) and 2 μM rotenone+2 μM antimycin A were pre-loaded into the compound delivery ports of the system. The assay starts with the recording of the basal OCR, followed by recording of the OCR in response to different compounds that constitute the Mitochondria Stress Test (Seahorse Biosciences, Agilent). Once the basal OCR was measured, the compounds were added sequentially and the effects on OCR measured 3 times every 5 min. Oligomycin blocks ATP synthase; FCCP dissipates the inner membrane potential enabling maximum electron flux through the electron transport chain (ETC); rotenone+antimycin A inhibit complexes I and III, respectively, thereby blocking the entry of electrons in the ETC and shutting down mitochondrial activity.

[1] = system: primary mouse cortical neurons co-cultured with OPCs; test: In vitro OL maturation assay, MBP-colocalization with co-cultured axons; format: cell-based, rat
Procedure: In vitro OL maturation assay. Cortical and hippocampal tissue was dissected from C57BL/6 mice at embryonic day 14 and dissociated in 0.5% Trypsin with 100 U/mL DNase I diluted in HBSS (+/+) for 10 min at 37° C. Reaction was stopped by supplementing to a final concentration of 10% v/v FBS, 100 μg/mL Soybean Trypsin Inhibitor and 10 U/mL DNase I. Cells were resuspended in plating media consisting of equal volumes of FCS, HBSS (+/+), High-Glucose DMEM with L-glutamine, and F-12 with L-glutamine, then plated onto acid pre-washed German glass coverslips coated with 50 μg/mL Poly-D-Lysine and 20 μg/mL Laminin at a density of 50,000 cells/cm^2. Cells were allowed to attach for 2 hrs and then coverslips were rinsed with PBS before being transferred to a 24-well plate containing 0.5 mL growth media consisting of: Neurobasal medium, B27 supplement (Gibco), 0.5× Glutamax (Thermo), 5 μg/mL gentamycin and 5 μM glutamic acid. Half of the cell media was replaced after 3 DIV with supplemental growth media not containing glutamic acid^47. After 5 DIV, rat-derived cortical OPCs were added to the neuronal culture at a density of 5,000 cells/cm^2. Co-culture media used to resuspend and plate OPCs consisting of a 1:3 mixture of neuronal growth supplement (as above) and oligodendrocyte differentiation media, containing DMEM/F-12 (with L-glutamine), insulin-free N2 supplement, 1× Glutamax, 1×MEM non-essential amino acids, 1× β-mercaptoethanol, 2 ng/mL PDGF and 5 μg/mL gentamycin. All drugs and taurine co-treatment were added once to culture upon plating of OPCs at the following concentrations: 0.5 μM benztropine, 1.0 μM miconazole, each with or without 2 mM taurine. Cultures were maintained by replacing half of the media every three days, maintaining an equivalent concentration of taurine throughout in appropriate wells. […] Co-localization was quantified within regions of interest delineated as the periphery of individual oligodendrocytes. The co-localization index (adapted from a previously described method^48) was calculated as total proportion of co-localized 3D surface area between Tuj1 (neuron) and oligodendrocyte (MBP) over total Tuj1 (neuronal process) area enclosed within each oligodendrocyte process tree as the selected region of interest (ROI, see FIG. 3B″). Mean colocalization values for each condition were normalized to the DMSO condition mean analyzed statistically using Prism software (GraphPad, v7) for two-way ANOVA comparisons (Drug Treatment×Taurine Supplement) with Tukey post-tests for statistical significance. […]

NCCS(=O)(=O)O [taurine, 2-aminoethanesulfonic acid]
Oxygen consumption rate (OCR) values (OPCs): significantly increase | MBP-colocalization with axons, treatment alone vs. DMSO (Tukey post hoc) ([1]; 0.5 μM benztropine, 1.0 μM miconazole or 2 mM taurine alone, 14 days): no significant difference | Index of MBP-colocalization with axons ([1]; 2 mM taurine in cultures treated with benztropine or miconazole, 14 days of neuron-OPC co-culture): significantly increase
